Tests used:
Format in all cases: in vivo
[1] = test system: Ctenocephalides felis; test: Ctenocephalides felis oral test; settings: 48 h, 100 ppm in citrated cattle blood, adult cat fleas, after 2 days, read-out: efficacy (kill)
Procedure: Ctenocephalides felis—Oral Test
(§1) Solvent: Dimethyl Sulfoxide
To produce a suitable active compound formulation, 10 mg of active compound are mixed with 0.5 ml of dimethyl sulfoxide. Dilution with citrated cattle blood gives the desired concentration.
About 20 unfed adult cat fleas (Ctenocephalides felis) are placed into a chamber which is closed at the top and bottom with gauze. A metal cylinder whose bottom end is closed with parafilm is placed onto the chamber. The cylinder contains the blood/active compound formulation, which can be imbibed by the fleas through the parafilm membrane.
After 2 days, the kill in % is determined. 100% means that all of the fleas have been killed; 0% means that none of the fleas have been killed.

[2] = test system: Ctenocephalides felis; test: Ctenocephalides felis in vitro contact test with adult cat fleas; settings: 5 μg/cm^2 (=500 g of ai/ha), after 48 h, read-out: efficacy (fleas dead or moribund)
Procedure: Ctenocephalides felis—In Vitro Contact Tests with Adult Cat Fleas
For the coating of the test tubes, 9 mg of active compound are first dissolved in 1 ml of acetone p.a. and then diluted to the desired concentration with acetone p.a. 250 μl of the solution are distributed homogeneously on the inner walls and the base of a 25 ml glass tube by turning and rocking on an orbital shaker (rocking rotation at 30 rpm for 2 h). With 900 ppm of active compound solution and internal surface area 44.7 cm^2, given homogeneous distribution, an area-based dose of 5 μg/cm^2 is achieved.
After the solvent has evaporated off, the tubes are populated with 5-10 adult cat fleas (Ctenocephalides felis), sealed with a perforated plastic lid and incubated in a horizontal position at room temperature and ambient humidity. After 48 h, efficacy is determined. To this end, the tubes are stood upright and the fleas are knocked to the base of the tube. Fleas which remain motionless at the base or move in an uncoordinated manner are considered to be dead or moribund.
100% efficacy means that all the fleas were dead or moribund. 0% efficacy means that no fleas were harmed.

[3] = test system: Nezara viridula; test: Nezara viridula spray test; settings: 500 g/ha, larvae on barley plants, after 4 days
Procedure: Nezara viridula—Spray Test Solvent: 78.0 parts by weight of acetone • • 1.5 parts by weight of dimethylformamide Emulsifier: alkylaryl polyglycol ether
(§2) To produce a suitable active compound formulation, 1 part by weight of active compound is dissolved using the stated parts by weight of solvent and made up with water containing an emulsifier concentration of 1000 ppm until the desired concentration is attained. To produce further test concentrations, the formulation is diluted with emulsifier-containing water.
Barley plants (Hordeum vulgare) are sprayed with an active compound formulation of the desired concentration and are infected with larvae of the Southern green shield bug (Nezara viridula).
After 4 days, the efficacy in % is determined. 100% means that all of the shield bugs have been killed; 0% means that none of the shield bugs have been killed.

[4] = test system: Myzus persicae; test: Myzus persicae oral test; settings: 4 ppm, after 5 days
Procedure: Myzus persicae—Oral Test Solvent: 100 parts by weight of acetone
To produce a suitable active compound formulation, 1 part by weight of active compound is dissolved using the specified parts by weight of solvent and made up with water until the desired concentration is attained.
50 μl of the active compound formulation are transferred into microtitre plates and made up to a final volume of 200 μl with 150 μl of IPL41 insect medium (33%+15% sugar). Subsequently, the plates are sealed with parafilm, which a mixed population of green peach aphids (Myzus persicae) within a second microtitre plate is able to puncture and imbibe the solution through.
After 5 days, the efficacy in % is determined. 100% means that all the aphids have been killed; 0% means that no aphids have been killed.

[5] = test system: Spodoptera frugiperda; test: Spodoptera frugiperda spray test; settings: foliar, 168 h, maize leaf discs, after 7 days, read-out: efficacy (caterpillars killed)
Outline: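 Compound was dissolved in acetone/dimethylformamide and diluted with water containing 1000 ppm alkylaryl polyglycol ether emulsifier to test concentrations. Maize leaf discs were sprayed, dried and infested with fall armyworm caterpillars. Efficacy (% caterpillars killed) was scored after 7 days.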

[6] = test system: Diabrotica balteata; test: Diabrotica balteata spray test; settings: 168 h, beetle larvae on wheat, after 7 days, read-out: efficacy (wheat plant growth); for pest or weed control at 500 g/ha: 500 g/ha (=160 μg/cavity); for pest or weed control at 100 g/ha: 100 g/ha (=32 μg/cavity)
Outline: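 Germinated wheat seedlings in agar multiwell plates were sprayed with compound in acetone/DMF with emulsifier-containing water, then infested with 10-20 Diabrotica balteata larvae. After 7 days, efficacy (%) scored by plant growth: 100% equals untreated, uninfested control, 0% no plants grown.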

[7] = test system: Tetranychus urticae; test: Tetranychus urticae spray test, OP-resistant; settings: 100 g/ha
Procedure: Tetranychus urticae—Spray Test, OP-Resistant Solvent: 78.0 parts by weight of acetone • • 1.5 parts by weight of dimethylformamide Emulsifier: alkylaryl polyglycol ether
as §2
Discs of bean leaves (Phaseolus vulgaris) infested with all stages of the greenhouse red spider mite (Tetranychus urticae) are sprayed with an active compound formulation of the desired concentration.
After 6 days, the efficacy in % is determined. 100% means that all the spider mites have been killed; 0% means that no spider mites have been killed.

[8] = test system: Phaedon cochleariae; test: Phaedon cochleariae spray test; settings: foliar, 168 h, Chinese cabbage leaf discs, after 7 days, read-out: efficacy (beetle larvae killed)
Procedure: Phaedon cochleariae—Spray Test Solvent: 78.0 parts by weight of acetone • • 1.5 parts by weight of dimethylformamide Emulsifier: alkylaryl polyglycol ether
as §2
Discs of Chinese cabbage leaves (Brassica pekinensis) are sprayed with an active compound formulation of the desired concentration and, after drying, populated with larvae of the mustard beetle (Phaedon cochleariae).
After 7 days, the efficacy in % is determined. 100% means that all the beetle larvae have been killed; 0% means that no beetle larvae have been killed.

[9] = test system: Musca domestica; test: Musca domestica test; settings: 100 ppm, adult houseflies, after 2 days
Procedure: as §1
To produce a suitable active compound formulation, 10 mg of active compound are mixed with 0.5 ml of dimethyl sulfoxide, and the concentrate is diluted with water to the desired concentration.
Vessels containing a sponge treated with sugar solution and the desired concentration of active compound formulation are populated with 10 adult houseflies (Musca domestica).
After 2 days, the kill in % is determined. 100% means that all of the flies have been killed; 0% means that none of the flies have been killed.

## CNc1nc(-c2ccc(C=NNC(=S)Nc3ccccc3C(C)C)cc2)nn1-c1ccc(OC(F)(F)F)cc1 [Compound I-018, 1-(2-isopropylphenyl)-3-[[4-[5-(methylamino)-1-[4-(trifluoromethoxy)phenyl]-1,2,4-triazol-3-yl]phenyl]methyleneamino]thiourea]
[1]
  pest or weed control at 100 ppm: 95%
[2]
  pest or weed control at 5 µg/cm2: 80%
[3]
  efficacy (shield bugs killed): 100%
[4]
  efficacy (aphids killed): 90%
[5]
  pest or weed control at 100 g/ha: 100%
[6]; 125 g/ha (=40 μg/cavity)
  pest or weed control at 125 g/ha: 100%
[6]
  pest or weed control at 500 g/ha: 100%

## CC(C)c1ccccc1NC(=S)NN=Cc1ccc(-c2nc(NC3CSC3)n(-c3ccc(OC(F)(F)F)cc3)n2)cc1 [Compound I-057]
[4]
  efficacy (aphids killed): 90%
[5]
  pest or weed control at 100 g/ha: 100%
[6]
  pest or weed control at 100 g/ha: 100%
  pest or weed control at 500 g/ha: 100%

## CCOCCNc1nc(-c2ccc(C=NNC(=S)Nc3ccccc3C(C)C)cc2)nn1-c1ccc(OC(F)(F)F)cc1 [Compound I-060]
[5]
  pest or weed control at 100 g/ha: 100%
[7]; bean leaf discs, all stages, after 6 days
  efficacy (spider mites killed): 90%
[6]
  pest or weed control at 100 g/ha: 100%
  pest or weed control at 500 g/ha: 100%

## CCO[C@@H]1[C@@H](OC)[C@H](C)O[C@@H](OC(=O)Nc2ccc(-c3nc(NC(C)=O)n(-c4ccc(OC(F)(F)F)cc4)n3)cc2)[C@@H]1OC [Compound I-001, [(2S,3R,4R,5S,6S)-4-ethoxy-3,5-dimethoxy-6-methyl-tetrahydropyran-2-yl]N-[4-[5-acetamido-1-[4-(trifluoromethoxy)phenyl]-1,2,4-triazol-3-yl]phenyl]carbamate]
[5]
  pest or weed control at 100 g/ha: 100%
  pest or weed control at 500 g/ha: 100%
[7]; foliar, 144 h
  efficacy (spider mites killed): 90%
[8]
  pest or weed control at 500 g/ha: 100%

## CCO[C@@H]1[C@@H](OC)[C@H](C)O[C@@H](OC(=O)Nc2ccc(-c3nc(NC(C)=O)n(-c4ccc(OC(F)(F)C(F)(F)F)cc4)n3)cc2)[C@@H]1OC [Compound I-006]
[1]
  pest or weed control at 100 ppm: 95%
[5]
  pest or weed control at 100 g/ha: 100%
  pest or weed control at 500 g/ha: 100%
[7]; foliar, 144 h
  efficacy (spider mites killed): 100%
[9]
  efficacy (kill): 80%
[8]; 100 g/ha
  pest or weed control at 100 g/ha: 100%
[8]
  pest or weed control at 500 g/ha: 100%
